The record followed here is patent EP4810494A1, “HPK1 DEGRADATION AGENT AND USE THEREOF IN FIELD OF MEDICINE” (Haisco Pharmaceutical Group Co., Ltd., priority 2023, dated 2025).

Each structure is given as a SMILES string. Structures can show the parent of a compound that is named as a salt. Some results are limits rather than exact numbers.

Test system in the first series: not listed separately
Put plainly: Pharmacokinetic test in mice. Type of series: in vivo, ICR mice. Conditions: mouse, plasma, IV, 1 mg/kg. How it is done: Test example 6: Pharmacokinetic test in mice
Experimental objective: In this experiment, a single dose of test substances was administered to ICR mice intravenously and intragastrically, the concentrations of the test compounds in plasma of mice were measured, and the pharmacokinetic characteristics and bioavailability of the test compounds in mice were evaluated.
Experimental animals: Male ICR mice, 20-35 g, purchased from Chengdu Dossy Experimental Animals Co., Ltd. (SCXK (CHUAN) 2020-030).
Experimental method: On the day of the experiment, the ICR mice were randomly grouped according to their body weights. The animals were fasted but with water available overnight before the administration, and fed 4 h after the administration.
Sampling: Blood was taken from the orbits of the mice at specified time points, and placed in an EDTAK2 centrifuge tube. Centrifugation was performed at 5000 rpm at 4°C for 10 min, and the plasma was collected.
Time points for plasma collection in G1 and G1-2 groups: 0, 5 min, 15 min, 30 min, 1 h, 2 h, 4 h, 7 h, and 24 h.
Time points for plasma collection in G2 and G2-2 groups: 0, 5 min, 15 min, 30 min, 1 h, 2 h, 4 h, 7 h, and 24 h.
Before analysis and detection, all the samples were stored at -60°C or lower. The samples were analysed quantitatively by LC-MS/MS. Table 6-1 PK data of test compound drug in mice
As a reminder, the clearance is a measure of how efficiently the substance is removed, as volume per time. As usually defined, the half-life is the time in which the quantity being followed falls by half. `N#Cc1ccn2c(-c3ccc(Nc4ccc(N5CCC6(CC5)CC(N5CCN7c8cc(F)c(N9CCC(=O)NC9=O)cc8CC[C@@H]7C5)C6)cn4)c4c3CNC4=O)cnc2c1` [Compound 48] gave a clearance of 1.67 mL/min/kg and a half-life of 5.3 h.

Staying with this series, now noted: mouse, plasma, po, i. g., 10 mg/kg.
The AUC is concentration integrated over time. Broadly, the Cmax is the maximum level reached in the sampled fluid or tissue. For `N#Cc1ccn2c(-c3ccc(Nc4ccc(N5CCC6(CC5)CC(N5CCN7c8cc(F)c(N9CCC(=O)NC9=O)cc8CC[C@@H]7C5)C6)cn4)c4c3CNC4=O)cnc2c1` [Compound 48], the AUC stood at 25900 ng·h/mL, the Cmax is 2300 ng/mL and the half-life was 4.9 h.

The target in a further series is T1, HPK1 kinase (Homo sapiens, UniProt Q92918).
T1 construct: purchased Carna 07-410
T1 sequence (Q92918 1-346 limits assumed): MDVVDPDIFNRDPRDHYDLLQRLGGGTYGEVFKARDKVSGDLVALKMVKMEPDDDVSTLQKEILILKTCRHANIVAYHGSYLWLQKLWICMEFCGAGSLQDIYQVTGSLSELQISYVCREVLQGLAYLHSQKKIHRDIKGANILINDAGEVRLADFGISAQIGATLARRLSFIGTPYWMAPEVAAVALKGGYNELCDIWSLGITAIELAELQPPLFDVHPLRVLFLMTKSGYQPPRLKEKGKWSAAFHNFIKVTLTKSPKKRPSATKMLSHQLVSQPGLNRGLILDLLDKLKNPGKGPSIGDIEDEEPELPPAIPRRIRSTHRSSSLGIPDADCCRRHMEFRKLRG
Put plainly: HPK1 kinase assay (1 mM ATP). Type of series: biochemical.
Settings: not given
As to the method:
Test example 5: HPK1 kinase assay (1 mM ATP)
The kinase HPK1 (Carna, Cat.No 07-410) was prepared into 2× kinase solution using 1× kinase buffer. The substrate Fluorescein-PKC (Invitrogen, Cat. No. PV3506) and ATP (working concentration: 1 mM) (Sigma, Cat. No. 2383-5G) were prepared into 2× substrate solution using 1×kinase buffer. The detection reagent was diluted to 2-fold the final concentration using an antibody diluent. 100 nL of compounds at different concentrations and 5 µL of kinase solution were added to each well of a 384-well plate, and the mixture was incubated at room temperature for 10 minutes. After the incubation was completed, 5 µL of substrate solution was added to each well, and the resulting mixture was reacted at room temperature for 90 minutes. After the reaction was completed, 10 µL of detection reagent was added to each well to terminate the reaction, and the mixture was incubated at room temperature for 60 minutes. Fluorescence readings were detected using an Envision instrument with excitation at 320 nm and emission at 520 nm and 495 nm. IC50 value was calculated using XLFit excel add-in version 5.4.0.8 software. The calculation formula of the inhibition rate was shown in formula 5-1, wherein max is the Ratio of the DMSO control, min is the Ratio of the negative control without enzyme, and sample is the Ratio of the compound. Ratio = RFU520nm /RFU495nm [formula] Inhibition% = (max−sample)/(max−min) × 100% [formula] Table 5-1 Inhibitory activity of test compounds against HPK1 kinase
As usually defined, the IC50 is the concentration that gives 50% inhibition. In the case of `O=C1CCN(c2cc3c(cc2F)N2CCN(CC4CN(c5ccc(Nc6ccc(-c7cnc8cc(F)ccn78)c7c6C(=O)NC7)nc5)C4)C[C@@H]2CC3)C(=O)N1` [Trifluoroacetic acid salt of compound 22], the IC50 was less than 50 nM. On the same count and under the same terms, under `CN(C)Cc1nc(Nc2ccc(-c3cnc4cc(F)ccn34)c3c2C(=O)NC3)ccc1N1CCC(CN2CCN(c3ccc(N4CCC(=O)NC4=O)c(F)c3)CC2)CC1` [Trifluoroacetic acid salt of compound 12] stands less than 50 nM. Compound `O=C1CCC(c2ccc(N3CCC(CN4CCC(c5ccc(Nc6ccc(-c7cnc8cc(F)ccn78)c7c6C(=O)NC7)nc5)CC4)CC3)cc2F)C(=O)N1` (stereo not drawn) [Trifluoroacetic acid salt of compound 17] showed an IC50 of less than 50 nM. Same read-out and setting: the value for `O=C1CCN(c2ccc(N3CCC(CN4CCC(c5ccc(Nc6ccc(-c7cnc8cc(F)ccn78)c7c6C(=O)NC7)nc5)CC4)CC3)cc2F)C(=O)N1` [Trifluoroacetic acid salt of compound 18] was less than 50 nM. The same measure, in the same setting: the value for `N#Cc1ccn2c(-c3ccc(Nc4ccc(N5CCC(N6CCN7c8cc(F)c(N9CCC(=O)NC9=O)cc8CC[C@H]7C6)CC5)cn4)c4c3CNC4=O)cnc2c1` [Trifluoroacetic acid salt of compound 45] was less than 50 nM. For the compound `O=C1CCN(c2cc3c(cc2F)N2CCN(CC4CN(c5ccc(Nc6ccc(-c7cnc8cc(F)ccn78)c7c6C(=O)NC7)nc5)C4)C[C@H]2CC3)C(=O)N1` [Trifluoroacetic acid salt of compound 21], the IC50 is less than 50 nM.

The same series, now with this note: ATP working concentration: 1 mM.
The compound `N#Cc1ccn2c(-c3ccc(Nc4ccc(N5CCC6(CCC(N7CCN8c9cc(F)c(N%10CCC(=O)NC%10=O)cc9CC[C@@H]8C7)CC6)CC5)cn4)c4c3CNC4=O)cnc2c1` [Trifluoroacetic acid salt of compound 46] returned an IC50 of less than 50 nM. As for `O=C1CCN(c2cc3c(cc2F)N2CCN(CC4CCN(c5ccc(Nc6ccc(-c7cnc8cc(F)ccn78)c7c6C(=O)NC7)nc5CN5CC[C@@H](F)C5)CC4)C[C@H]2CC3)C(=O)N1` [Trifluoroacetic acid salt of compound 30], the IC50 was less than 50 nM. Consider `O=C1CCN(c2cc3c(cc2F)N2CCN(C4CCC5(CC4)CCN(c4ccc(Nc6ccc(-c7cnc8cc(F)ccn78)c7c6C(=O)NC7)nc4)CC5)C[C@@H]2CC3)C(=O)N1` [Trifluoroacetic acid salt of compound 47], for which the IC50 is less than 50 nM. The compound `CN(C)Cc1nc(Nc2ccc(-c3cnc4cc(F)ccn34)c3c2C(=O)NC3)ccc1N1CCC(CN2CCN3c4cc(F)c(N5CCC(=O)NC5=O)cc4CC[C@@H]3C2)CC1` [Trifluoroacetic acid salt of compound 11] came in with an IC50 of less than 50 nM. The compound `O=C1CC[C@H](NC(=O)c2cc3c(cc2F)N2CCN(C4CC5(CCN(c6ccc(Nc7ccc(-c8cnc9cc(F)ccn89)c8c7C(=O)NC8)nc6)CC5)C4)C[C@@H]2CC3)C(=O)N1` [Trifluoroacetic acid salt of compound 33] came in with a concentration for half-maximal inhibition (IC50) of less than 50 nM.

`N#Cc1ccn2c(-c3ccc(Nc4ccc(N5CCC6(CC5)CC(N5CCN7c8cc(F)c(N9CCC(=O)NC9=O)cc8CC[C@@H]7C5)C6)cn4)c4c3CNC4=O)cnc2c1` [Compound 48] had an IC50 of less than 50 nM. Regarding `CN(C)Cc1nc(Nc2ccc(-c3cnc4cc(F)ccn34)c3c2C(=O)NC3)ccc1N1CCC(CN2CCN3c4cc(F)c(N5CCC(=O)NC5=O)cc4CC[C@H]3C2)CC1` [Trifluoroacetic acid salt of compound 10], the IC50 is less than 50 nM.

With `O=C1CCN(c2cc3c(cc2F)N2CCN(CC4CCN(c5ccc(Nc6ccc(-c7cnc8cc(F)ccn78)c7c6C(=O)NC7)nc5CN5CCC(F)(F)C5)CC4)CC2CC3)C(=O)N1` (stereo not drawn) [Trifluoroacetic acid salt of compound 25], the IC50 is less than 50 nM. As for `O=C1CCN(c2cc3c(cc2F)N2CCN(CC4CCN(c5ccc(Nc6ccc(-c7cnc8cc(F)ccn78)c7c6C(=O)NC7)nc5CN5CCC(F)(F)C5)CC4)C[C@H]2CC3)C(=O)N1` [Trifluoroacetic acid salt of compound 28], the IC50 is less than 50 nM. The same measure, in the same setting: the value for `N#Cc1ccn2c(-c3ccc(Nc4ccc(N5CCC6(CC5)CC(N5CCN7c8cc(F)c(N9CCC(=O)NC9=O)cc8CC[C@H]7C5)C6)cn4)c4c3CNC4=O)cnc2c1` [Trifluoroacetic acid salt of compound 43] was less than 50 nM; that for `O=C1CCN(c2cc3c(cc2F)N2CCN(C4CCC5(CC4)CCN(c4ccc(Nc6ccc(-c7cnc8cc(F)ccn78)c7c6C(=O)NC7)nc4)CC5)C[C@H]2CC3)C(=O)N1` [Trifluoroacetic acid salt of compound 44] was less than 50 nM; that for `O=C1CCN(c2cc3c(cc2F)N2CCN(CC4CCN(c5ccc(Nc6ccc(-c7cnc8cc(F)ccn78)c7c6C(=O)NC7)nc5CN5CC[C@H](F)C5)CC4)C[C@H]2CC3)C(=O)N1` [Trifluoroacetic acid salt of compound 29] was less than 50 nM.

In the case of `O=C1CCN(c2cc3c(cc2F)N2CCN(CC4CCN(c5ccc(Nc6ccc(-c7cnc8cc(F)ccn78)c7c6C(=O)NC7)nc5CN5CC(F)(F)C5)CC4)C[C@@H]2CC3)C(=O)N1` [Trifluoroacetic acid salt of compound 24], the IC50 is less than 50 nM.

For the compound `O=C1CCN(c2cc3c(cc2F)N2CCN(CC4CCN(c5ccc(Nc6ccc(-c7cnc8cc(F)ccn78)c7c6C(=O)NC7)nc5CN5CC(F)(F)C5)CC4)C[C@H]2CC3)C(=O)N1` [Trifluoroacetic acid salt of compound 23], the IC50 is less than 50 nM.

Staying with this series, now noted: ATP working concentration: 1 mM; read-out: IC50.
On to `CN(C)Cc1nc(Nc2ccc(-c3cnc4cc(F)ccn34)c3c2C(=O)NC3)ccc1C1CCN(CC2(F)CCN(c3ccc(N4CCC(=O)NC4=O)c(F)c3)CC2)CC1` [Compound 38], for which the IC50 was less than 50 nM. In the case of `O=C1CCC(c2ccc(N3CCN(CC4CCN(c5ccc(Nc6ccc(-c7cnc8cc(F)ccn78)c7c6C(=O)NC7)nc5)CC4)CC3)cc2F)C(=O)N1` (single isomer, unassigned) [Compound 1-2], the IC50 is less than 50 nM.
